One test deals with H-EMC-SS cells. Put plainly: Suppression of cell proliferation of chondrosarcoma cell line H-EMC-SS (CCK-8). It counts as cell-based, human. Conditions: drug at various concentrations. The source says: The H-EMC-SS cells were obtained from the Riken BioResource Center.
The H-EMC-SS cells were obtained from the Riken BioResource Center. As the SW1353 cells, those obtained from ATCC were used.

Test [1] relates to PPARγ expression in GCTB cultured cells. Put plainly: PPARγ immunostaining of GCTB cultured cells. In kind it is cell-based, human. Conditions: zaltoprofen 10, 50, 100, 200 μM; 24 hours; about 15% in the control. How it is done:
The GCTB cultured cells of the aforementioned case 1 were cultured on chamber cover slide glass, and 24 hours thereafter, zaltoprofen was added at various concentrations (10, 50, 100, and 200 μM). After 24 hours, the cells were fixed with 4% paraformaldehyde, and immunohistochemical staining of PPARγ was performed. The PPARγ protein was fluorescently detected by using the antibody SC-7273 of Santa Cruz Biotechnology, Inc. as the primary antibody and the rat anti-mouse IgG FITC (11-4011-85) of eBioscience as the secondary antibody. Observation was performed with a fluorescence microscope (BZ-9000) of Keyence, and positive images for each concentration were quantitatively observed (FIGS. 6 and 7).

In the case of `CC(C(=O)O)c1ccc2c(c1)CC(=O)c1ccccc1S2` (centres unmarked) [zaltoprofen], in the test with H-EMC-SS cells, the “suppression of cell proliferation (absorbance at 450 nm)” value is recorded as “cell proliferation was suppressed”. Besides, the “expression of PPARγ (ratio of PPARγ-positive cells)” value in test [1] is recorded as “increased in a zaltoprofen concentration-dependent manner”.

The values are drawn from patent publication US10653667B2, “Drug for preventing, treating or preventing metastasis of giant cell tumor that occurs in bone or soft parts, chondrosarcoma, or osteosarcoma, local injection for arterial embolization, and artificial bone” (NIPPON CHEMIPHAR CO., LTD, priority 2013, dated 2020).
